Assay results from patent publication US8377974B2 (Millennium Pharmaceuticals, Inc., priority 2004, dated 2013).

Target: T1, human plasma protein factor Xa (Homo sapiens, UniProt P00742)
T1 construct: measure proteolytic activity of the enzyme (factor Xa); purchased Haematologic Technologies (Essex Junction, Vt.); host or cells: human plasma
Test: Factor Xa IC50 determination: cleavage of paranitroanilide substrate S-2765 in 96-well plates
Type: biochemical
Settings: fXa 1 nM, S-2765 100 μM, Tris buffered saline pH 7.4, room temperature
Method in brief: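 Initial rates of S-2765 (100 μM final) cleavage, read at 405 nm for 2 min, fitted with a four-parameter equation to give IC50. Enzyme: 1 nM human plasma fXa, 5 min room-temperature preincubation with inhibitor (0.01 nM–10 μM) in 20 mM Tris, 150 mM NaCl, 5 mM CaCl2, 0.1% BSA, 5% DMSO, pH 7.4; duplicates.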

T1 sequence (P00742 235-488 limits assumed): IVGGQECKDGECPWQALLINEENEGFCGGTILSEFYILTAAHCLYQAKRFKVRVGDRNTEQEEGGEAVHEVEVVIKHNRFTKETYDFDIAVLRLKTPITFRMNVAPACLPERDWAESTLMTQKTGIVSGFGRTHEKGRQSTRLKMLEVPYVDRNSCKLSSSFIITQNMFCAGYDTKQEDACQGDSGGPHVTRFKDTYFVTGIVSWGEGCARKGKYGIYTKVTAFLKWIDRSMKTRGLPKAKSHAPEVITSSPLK
T1 sequence (P00742 41-179 partner limits assumed): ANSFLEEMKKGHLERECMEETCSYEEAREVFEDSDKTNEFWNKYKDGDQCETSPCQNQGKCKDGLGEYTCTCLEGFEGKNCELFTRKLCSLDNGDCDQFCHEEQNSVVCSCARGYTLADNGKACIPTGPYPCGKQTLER

| SMILES | IC50 [nM] |
| --- | --- |
| CNC(=N)c1ccc(-c2cc(CN(C)C(=O)c3ccc(Cl)s3)on2)cc1 [Example 48, 5-Chloro-thiophene-2-carboxylic acid methyl-{3-[4-(N-methylcarbamimidoyl)-phenyl]-isoxazol-5-ylmethyl}-amide] | ≤ 100 |
| CN(C)C(=N)c1ccc(-c2cc(CNC(=O)c3ccc(Cl)s3)on2)c(Oc2ccccc2)c1 [Example 130, 5-Chloro-thiophene-2-carboxylic acid {3-[4-(N,N-dimethyl-carbamimidoyl)-2-phenoxy-phenyl]-isoxazol-5-ylmethyl}-amide] | ≤ 100 |
| C#CCN(C)C(=N)c1ccc(-c2cc(CN(C)C(=O)c3ccc(Cl)s3)on2)cc1 [Example 47, 5-Chloro-thiophene-2-carboxylic acid methyl-{3-[4-(N-methyl-N-prop-2-ynyl-carbamimidoyl)-phenyl]-isoxazol-5-ylmethyl}-amide] | ≥ 500 |
| COc1cc(C(=N)N2CCCCC2)ccc1-c1cc(CNC(=O)c2ccc(Cl)s2)on1 [Example 121, 5-Chloro-thiophene-2-carboxylic acid {3-[4-(imino-piperidin-1-yl-methyl)-2-methoxy-phenyl]-isoxazol-5-ylmethyl}-amide] | ≤ 100 |
| CCOC(=O)C1CCN(C(=N)c2ccc(C3=NOC(CNC(=O)c4ccc(Cl)s4)C3)cc2)CC1 (stereo not shown) [Example 12, 1-{[4-(5-{[(5-Chloro-thiophene-2-carbonyl)-amino]-methyl}-4,5-dihydro-isoxazol-3-yl)-phenyl]-imino-methyl}-piperidine-4-carboxylic acid ethyl ester] | 100 to 500 |
| CC1(CNC(=O)c2ccc(Cl)s2)CC(c2ccc(C(=N)N3CCCCC3)cc2)=NO1 (stereo not shown) [Example 60, 5-Chloro-thiophene-2-carboxylic acid {3-[4-(imino-piperidin-1-yl-methyl)-phenyl]-5-methyl-4,5-dihydro-isoxazol-5-ylmethyl}-amide] | ≤ 100 |

Continued, values first:

| IC50 [nM] | SMILES |
| --- | --- |
| ≤ 100 | O=C(NCc1cn(-c2ccc(N3CCCCC3=O)nc2)nn1)c1ccc(Cl)s1 [Example 388, 5-Chloro-N-((1-(6-(2-oxopiperidin-1-yl)pyridin-3-yl)-1H-1,2,3-triazol-4-yl)methyl)thiophene-2-carboxamide] |
| ≤ 100 | CN(C)C(=N)c1ccc(-n2cnc(CNC(=O)c3ccc(Cl)s3)c2)cc1 [Example 364, N-((1-(4-(N,N-Dimethylcarbamimidoyl)phenyl)-1H-imidazol-4-yl)methyl)-5-chlorothiophene-2-carboxamide] |
| ≤ 100 | COc1ccc(Oc2cc(C(=N)N(C)C)ccc2-c2cc(CNC(=O)c3ccc(Cl)s3)on2)cc1 [Example 133, 5-Chloro-thiophene-2-carboxylic acid {3-[4-(N,N-dimethyl-carbamimidoyl)-2-(4-methoxy-phenoxy)-phenyl]-isoxazol-5-ylmethyl}-amide] |
| ≤ 100 | N=C(c1ccc(-c2cncc(CNC(=O)c3ccc(Cl)s3)c2)cc1)N1CCC1 [Example 371, N-((5-(4-(Azetidin-1-yl(imino)methyl)phenyl)pyridin-3-yl)methyl)-5-chlorothiophene-2-carboxamide] |
| 100 to 500 | O=C(NCC1CC(c2ccc(Nc3ccnc(Cl)c3)cc2)=NO1)c1ccc(Cl)s1 (stereo not shown) [Example 229, 5-Chloro-thiophene-2-carboxylic acid {3-[4-(2-chloro-pyridin-4-ylamino)-phenyl]-4,5-dihydro-isoxazol-5-ylmethyl}-amide] |
| ≤ 100 | O=C(NCc1cn(-c2ccc(-n3ccccc3=O)cc2)nn1)c1ccc(Cl)s1 [Example 290, 5-Chloro-N-((1-(4-(2-oxopyridin-1(2H)-yl)phenyl)-1H-1,2,3-triazol-4-yl)methyl)thiophene-2-carboxamide] |
| ≤ 100 | O=C(NCc1cn(-c2ccc(-n3cc(Cl)ccc3=O)cc2)nn1)c1ccc(Cl)s1 [Example 299, 5-Chloro-N-((1-(4-(5-chloro-2-oxopyridin-1(2H)-yl)phenyl)-1H-1,2,3-triazol-4-yl)methyl)thiophene-2-carboxamide] |
